Measured values reported in patent US20090246292A1, “ANTIMICROBIAL FORMULATIONS COMPRISING A QUINONE AND A COPPER SALT” (priority 2006, published 2009).
≈ marks a conversion by molar mass, not a printed value.

Legend:
[1] = system: panel of different propionibacterium strains; experiment: MIC by agar dilution and (S)DDA, whole panel; assay type: cell-based, Propionibacterium spp; settings: compound alone; also under supplemented conditions
Experimental: For (S)DDA experiments 200 μg of each test compound was added per disc. […] MIC experiments were performed in duplicate, DDA experiments as single replicates only. SDDA experiments were conducted in triplicate.
The activity of the salt (MIC by agar dilution and DDA) was also determined against a panel of different propionibacterium strains. Supplemented DDA experiments were also carried out. […] DMSO was used as the diluting solvent. MIC experiments were performed in duplicate and DDA experiments as single replicates only.

[2] = system: Staphylococcus haemolyticus ATCC 29970; settings: triplicate
Experimental: (§6) The staphylococci were cultured and maintained on Mueller-Hinton Medium (agar and broth) at pH 7.2; cultures were incubated aerobically at 37° C. for 19-20 hours.
This is a standard international method for quantitatively assessing the antimicrobial activity of a compound in a liquid medium. The method used a sterile 96-well microtitre plate, capable of holding about 200 μl of liquid per well. […] The culture media were as described above.
The wells were inoculated with a liquid suspension of freshly grown micro-organism and incubated under the conditions described above. After incubation, the microtitre plate was examined visually (with the aid of a light box) for cloudiness in each well, which would indicate microbial growth. The MIC value was recorded as the lowest concentration of test compound required to inhibit microbial growth, ie, the lowest concentration for which the liquid in the well remained clear.

[3] = system: panel of different staphylococcal strains; settings: compound alone; also under supplemented conditions
Experimental: The activity of the salt was also determined against a panel of different staphylococcal strains, including some with known antibiotic resistance. MIC, MBC and DDA assays were carried out as described above for each of the strains, including determining the effect of the presence of salt and serum.
For DDA experiments 200 μg of the test compound was added per disc. DMSO was used as the diluting solvent. All experiments were performed in triplicate.

[4] = system: P. acnes PRP-059; experiment: Disc diffusion assay (DDA), also supplemented; assay type: cell-based, Propionibacterium acnes; settings: Table 12 series, 200 μg per disc
Experimental: (§7) The propionibacteria were cultured and maintained on Wilkins-Chalgren Anaerobe Medium (agar and broth) at pH 6.0; all cultures were incubated anaerobically at 37° C. for 72 hours.
(§8) A sterile paper disc was impregnated with a sample of the test compound in a suitable solvent and 30 minutes allowed for the solvents to evaporate (where possible). The disc was then placed on an agar plate onto which the test micro-organism had been inoculated. The plate was then incubated under the conditions described above, following which it was examined visually for signs of bacterial growth. […] The diameter of this zone of “inhibition” was measured using a ProtoCOL™ automated zone sizer (Synbiosis, Cambridge, UK).
(§9) For assays using Propionibacterium spp. strains the supplements used in the examples below were lipid (either Tween™ 80 or triolein, both at 1% v/v) and sodium chloride (100 mM).

[5] = system: S. aureus ATCC 29213; experiment: Minimum bactericidal concentration (MBC) assay; assay type: cell-based, Staphylococcus aureus; settings: Staphylococcus aureus, ATCC29213; S. aureus ATCC 29213; duplicate; read-out: MBC
Experimental: (§1) (b) Minimum Bactericidal Concentration (MBC) Assay
(§2) Following incubation they were examined visually for bacterial growth.

[6] = system: S. aureus ATCC 29213; experiment: Disc diffusion assay (DDA), also supplemented; settings: single compound, 200 μg per disc
Experimental: as §6
(d) Disc Diffusion Assay (DDA)
as §8
(f) Supplemented Disc Diffusion Assays
For assays using S. aureus ATCC 29213 the supplements used were sodium chloride (100 mM), lipid (Tween™ 80 at 1% v/v) and horse serum (5% v/v).

[7] = system: P. acnes PRP-010; experiment: Disc diffusion assay (DDA), also supplemented; assay type: cell-based, Propionibacterium acnes; settings: Table 12 series, 200 μg per disc
Experimental: as §7, §8, §9

[8] = system: P. acnes PRP-002; experiment: Disc diffusion assay (DDA), also supplemented; assay type: cell-based, Propionibacterium acnes; settings: Table 12 series, 200 μg per disc
Experimental: as §7, §8, §9

[9] = system: P. granulosum PRP-006; experiment: Disc diffusion assay (DDA), also supplemented; assay type: cell-based; settings: Table 12 series, 200 μg per disc
Experimental: as §7, §8, §9

[10] = system: P. granulosum PRP-005; experiment: Disc diffusion assay (DDA), also supplemented; assay type: cell-based; settings: Table 12 series, 200 μg per disc
Experimental: as §7, §8, §9

[11] = system: P. acnes PRP-046; experiment: Disc diffusion assay (DDA), also supplemented; assay type: cell-based, Propionibacterium acnes; settings: Table 12 series, 200 μg per disc
[12] = system: P. acnes PRP-068; experiment: Disc diffusion assay (DDA), also supplemented; assay type: cell-based, Propionibacterium acnes; settings: Table 12 series, 200 μg per disc
Experimental: as §7, §8, §9

[13] = system: P. acnes NCTC 737; experiment: Minimum inhibitory concentration (MIC) assay; assay type: cell-based, Propionibacterium acnes; settings: P. acnes NCTC 737
Excerpt: (§3) (a) Minimum Inhibitory Concentration (MIC) Assay
(§4) The culture media were as described above.
(§5) The assays included both negative (culture medium with no micro-organisms) and positive (culture medium plus diluting solvent plus micro-organism) controls.

[14] = system: P. granulosum PRP-044; experiment: Disc diffusion assay (DDA), also supplemented; assay type: cell-based; settings: Table 12 series, 200 μg per disc
Experimental: as §7, §8, §9

[15] = system: P. acnes PRP-101; experiment: Disc diffusion assay (DDA), also supplemented; assay type: cell-based, Propionibacterium acnes; settings: Table 12 series, 200 μg per disc
Experimental: as §7, §8, §9

[16] = system: P. granulosum PRP-019; experiment: Disc diffusion assay (DDA), also supplemented; assay type: cell-based; settings: Table 12 series, 200 μg per disc
Experimental: as §7, §8, §9

[17] = system: P. acnes PRP-004; experiment: Disc diffusion assay (DDA), also supplemented; assay type: cell-based, Propionibacterium acnes; settings: Table 12 series, 200 μg per disc
Experimental: as §7, §8, §9

[18] = system: P. granulosum NCTC 11865; experiment: Disc diffusion assay (DDA), also supplemented; assay type: cell-based; settings: Table 12 series, 200 μg per disc
Experimental: as §7, §8, §9

[19] = system: P. acnes PRP-102; experiment: Disc diffusion assay (DDA), also supplemented; assay type: cell-based, Propionibacterium acnes; settings: Table 12 series, 200 μg per disc
Experimental: as §7, §8, §9

[20] = system: P. acnes PRP-023; experiment: Disc diffusion assay (DDA), also supplemented; assay type: cell-based, Propionibacterium acnes; settings: Table 12 series, 200 μg per disc
Experimental: as §7, §8, §9

[21] = system: P. granulosum PRP-021; experiment: Disc diffusion assay (DDA), also supplemented; assay type: cell-based; settings: Table 12 series, 200 μg per disc
Experimental: as §7, §8, §9

[22] = system: S. aureus ATCC 29213; experiment: Minimum inhibitory concentration (MIC) assay; assay type: cell-based, Staphylococcus aureus; settings: S. aureus ATCC 29213
Excerpt: as §3, §4, §5

[23] = system: P. acnes PRP-039; experiment: Disc diffusion assay (DDA), also supplemented; assay type: cell-based, Propionibacterium acnes; settings: Table 12 series, 200 μg per disc
[24] = system: P. acnes PRP-008; experiment: Disc diffusion assay (DDA), also supplemented; assay type: cell-based, Propionibacterium acnes; settings: Table 12 series, 200 μg per disc
Experimental: as §7, §8, §9

[25] = system: P. acnes PRP-053; experiment: Disc diffusion assay (DDA), also supplemented; assay type: cell-based, Propionibacterium acnes; settings: Table 12 series, 200 μg per disc
Experimental: as §7, §8, §9

[26] = system: P. acnes PRP-026; experiment: Disc diffusion assay (DDA), also supplemented; assay type: cell-based, Propionibacterium acnes; settings: Table 12 series, 200 μg per disc
Experimental: as §7, §8, §9

[27] = system: P. granulosum PRP-055; experiment: Disc diffusion assay (DDA), also supplemented; assay type: cell-based; settings: Table 12 series, 200 μg per disc
Experimental: as §7, §8, §9

[28] = system: P. acnes PRP-017; experiment: Disc diffusion assay (DDA), also supplemented; assay type: cell-based, Propionibacterium acnes; settings: Table 12 series, 200 μg per disc
[29] = system: P. acnes NCTC 737; experiment: Disc diffusion assay (DDA), also supplemented; settings: single compound, 200 μg per disc;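 further: paper disc carrying compound placed on inoculated Wilkins-Chalgren Anaerobe agar pH 6.0, with lipid or NaCl supplement where listed, anaerobic 37 °C for 72 h, inhibition zone diameter read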
[30] = system: P. granulosum PRP-043; experiment: Disc diffusion assay (DDA), also supplemented; assay type: cell-based; settings: Table 12 series, 200 μg per disc
Experimental: as §7, §8, §9

[31] = system: P. acnes PRP-007; experiment: Disc diffusion assay (DDA), also supplemented; assay type: cell-based, Propionibacterium acnes; settings: Table 12 series, 200 μg per disc
Experimental: as §7, §8, §9

[32] = system: P. acnes PRP-003; experiment: Disc diffusion assay (DDA), also supplemented; assay type: cell-based, Propionibacterium acnes; settings: Table 12 series, 200 μg per disc
Experimental: as §7, §8, §9

[33] = system: P. acnes NCTC 737; experiment: Minimum bactericidal concentration (MBC) assay; assay type: cell-based, Propionibacterium acnes; settings: Cutibacterium acnes, NCTC737; P. acnes NCTC 737; duplicate; read-out: MBC
Experimental: as §1, §2

[34] = zone of inhibition diameter, unsupplemented

## Oc1cccc2cccnc12.[Cu+2] [8-hydroxyquinoline copper (II) salt]
[1]
  activity against propionibacterium strains tested (in words): high activity
[2]
  Cu-8HQ MIC: 7.8 µg/mL
[3]
  activity against staphylococcal strains (in words): high activity

## CC(C)(C)c1cc(O)ccc1O [TBHQ, t-butylhydroquinone]
[4]
  DDA: 10.87 mm
[5]
  MBC: 7.8 µg/mL (≈ 46.9 µM)
[6]; salt and serum supplements
  SS (S)DDA: 43.68 (±1.02) mm
[6]; [34]
  (S)DDA: 40.42 (±0.89) mm
[7]
  DDA: 8.68 mm
[8]
  DDA: 10.56 mm
[9]
  DDA: 9.93 mm
[10]
  DDA: 15.05 mm
[11]
  DDA: 14.22 mm
[12]
  DDA: 12.55 mm
[13]; Cutibacterium acnes, NCTC737, liquid medium, duplicate, read-out: MIC
  MIC: 7.8 µg/mL (≈ 46.9 µM)
[13]
  MIC/MBC ratio: 1
[14]
  DDA: 0.00 mm
[15]
  DDA: 14.01 mm
[16]
  DDA: 0.00 mm
[17]
  DDA: 13.80 mm
[18]
  DDA: 10.45 mm
[19]
  DDA: 9.10 mm
[20]
  DDA: 11.92 mm
[21]
  DDA: 8.57 mm
[22]
  MIC/MBC ratio: 0.5
[23]
  DDA: 17.04 mm
[24]
  DDA: 13.90 mm
[25]
  DDA: 9.93 mm
[26]
  DDA: 11.29 mm
[27]
  DDA: 10.04 mm
[28]
  DDA: 9.93 mm
[29]; salt and lipid (1% (v/v) Tween 80) supplements
  SL (S)DDA: 0.0 mm
[29]; [34]
  (S)DDA: 12.20 (±1.13) mm
[30]
  DDA: 10.77 mm
[31]
  DDA: 8.78 mm
[32]
  DDA: 18.61 mm
[33]
  MBC: 7.8 µg/mL (≈ 46.9 µM)
